The term melting point denotes the temperature of the solid-liquid transition.

In the case of `c1cc(-c2cnn3cc(-c4ccc(OCCN5CCCCC5)cc4)cnc23)cs1` [Example 4, 6-[4-(2-piperidin-1-yl-ethoxy)-phenyl]-3-thiophen-3-yl-pyrazolo[1,5-a]pyrimidine], the melting point lay within 141 to 143 °C. For the molecule `c1cc(-c2cnn3cc(-c4ccc(OCCN5CCOCC5)cc4)cnc23)cs1` [Example 3, 3-(3-thienyl)-6-(4-(2-(4-morpholinyl)ethoxy)phenyl)pyrazolo(1,5-A)pyrimidine], the melting point fell in the range of 149 to 151 °C.

Source of the values: patent US20020041880A1, “Method of treating cancer” (priority 2000, published 2002).
